Measurements as given in patent publication US5633219A, “5H-pyrrolo(3',4':5,6)(1,4)dithiin o(2,3-C)(1,2,5)thiadiazole-5,7(6H)-dione, compositions containing them and their use as antimicrobial and marine antifouling agents” (The Dow Chemical Company, priority 1996, dated 1997).
≈ marks a conversion by molar mass, not a printed value. Like-named read-outs stand apart in the source and are kept apart here.

Assays:
[1] = system: Salmonella choleraesuis (Sc); test: Minimum inhibitory concentration, nutrient agar, Salmonella choleraesuis; assay type: cell-based, Salmonella choleraesuis ATCC 10708; conditions: Salmonella enterica, 30° C, 48 hours
[2] = system: Pseudomonas aeruginosa (PRD-10); test: Minimum inhibitory concentration, nutrient agar, Pseudomonas aeruginosa PRD-10; conditions: 48 h
Bacillus subtilis (Bs) = test: Minimum inhibitory concentration, nutrient agar, Bacillus subtilis; conditions: 48 h
[3] = system: Pseudomonas aeruginosa (Pa); test: Minimum inhibitory concentration, nutrient agar, Pseudomonas aeruginosa; assay type: cell-based, Pseudomonas aeruginosa ATCC 10145; conditions: 30° C, 48 hours
[4] = system: Saccharomyces cerevisiae (Sc); test: Minimum inhibitory concentration, malt yeast agar, Saccharomyces cerevisiae; assay type: cell-based, Saccharomyces cerevisiae ATCC 4105; conditions: read-out: Minimum Inhibitory Concentration, Sc
Method: (§1) Malt yeast agar is prepared by adding 3 g yeast extract and 45 g malt agar per liter of deionized water. The specific agar is dispensed in 30 mL aliquots into 25×200 mm test tubes, capped and autoclaved for 15 minutes at 115° C.
(§2) The inoculation with the yeast and fungi is accomplished as follows. Cultures of yeast and fungi are incubated for seven days on malt yeast agar at 30° C. These cultures are used to prepare suspensions by the following procedure. A suspension of each organism is prepared by adding 10 mL of sterile saline and 10 microliters of octylphenoxy polyethoxy ethanol to the agar slant of yeast or fungi. The sterile saline/octylphenoxy polyethoxy ethanol solution is then agitated with a sterile swab to suspend the microorganism grown on the slant. Each resulting suspension is diluted into sterile saline (1 part suspension to 9 parts sterile saline). Aliquots of these dilutions are placed in individual wells of Steer's Replicator and petri plates inoculated as previously described. The petri plates are incubated at 30° C. and read after 48 hours for yeast and 72 hours for fungi.

Escherichia coli (Ec) = test: Minimum inhibitory concentration, nutrient agar, Escherichia coli; conditions: 48 h
Fusarium oxysporum (Of) = test: Minimum inhibitory concentration, malt yeast agar, Fusarium oxysporum; assay type: cell-based, Fusarium oxysporum ATCC 48112; conditions: 30° C, 72 hours (fungi), read-out: Minimum Inhibitory Concentration, Fo
Method: as §1, §2

[5] = system: Aureobasidium pullulan (Ap); test: Minimum inhibitory concentration, malt yeast agar, Aureobasidium pullulan; assay type: cell-based, Aureobasidium pullulan ATCC 16622; conditions: 30° C, 48 hours for yeast and 72 hours for fungi
Method: as §1, §2

Trichoderma viride (Tv) = test: Minimum inhibitory concentration, malt yeast agar, Trichoderma viride; assay type: cell-based, Trichoderma viride ATCC 8678; conditions: read-out: Minimum Inhibitory Concentration, Tv
Method: as §1, §2

[6] = system: Enterobacter aerogenes (Ea); test: Minimum inhibitory concentration, nutrient agar, Enterobacter aerogenes; conditions: Klebsiella aerogenes, 48 h
[7] = system: Staphylococcus aureus (Sa); test: Minimum inhibitory concentration, nutrient agar, Staphylococcus aureus; conditions: 48 h
[8] = system: Klebsiella pneumoniae (Kp); test: Minimum inhibitory concentration, nutrient agar, Klebsiella pneumoniae; conditions: 48 h
Aspergillus niger (An) = test: Minimum inhibitory concentration, malt yeast agar, Aspergillus niger; assay type: cell-based, Aspergillus niger ATCC 16404; conditions: 30° C, 72 hours (fungi)
Method: as §1, §2

Proteus vulgaris (Pv) = test: Minimum inhibitory concentration, nutrient agar, Proteus vulgaris; conditions: 48 h
[9] = system: Penicillium chrysogenum (PC); test: Minimum inhibitory concentration, malt yeast agar, Penicillium chrysogenum; assay type: cell-based, Penicillium chrysogenum ATCC 9480; conditions: read-out: Minimum Inhibitory Concentration, Pc
Method: as §1, §2

Candida albicans (Ca) = test: Minimum inhibitory concentration, malt yeast agar, Candida albicans; assay type: cell-based, Candida albicans ATCC 10231; conditions: read-out: Minimum Inhibitory Concentration, Ca
Method: as §1, §2

marine organisms = test: Marine antifouling rating of coated test panels exposed under a marine surface; conditions: scale 10 (completely free of growth) to 0 (completely covered), 1.0 g compound in 9.0 g latex binder
Method: Test panels are prepared from clear, rigid polyvinyl chloride film that is 0.381×10^-3 m thick and has one textured surface. The test panels are 0.1524 m by 0.1524 m squares that have 0.00635 m holes punched at corners on 0.127 m centers. A 0.102 square template, with a 0.067 m diameter hole at the center, is attached to the center of the textured surface of the test panels.
A candidate marine antifoulant compound (1.0 g) is stirred into a resinous latex binder (9.0 g). A portion of the compound/binder mixture (1.5 g) is added to the center of the test panel and uniformly spread over the circular area inside the template.
Water is added dropwise as needed to properly spread the compound/binder mixture. The template prevents the compound/binder mixture from spreading beyond the uncovered area. The test panel is allowed to sit for between 10 to 30 minutes until the edge of the spread compound/binder mixture has dried. The template is then removed. The test panel is then allowed to dry for 8 to 12 hours at room temperature.
Two test panels are prepared for each candidate marine antifoulant compound. Two control test panels are also prepared by only treating with the resinous latex binder. One test panel of each candidate marine […] compound is attached over a white background to the topside of an exposure support apparatus. The second test panel is attached over a black background to the underside of the exposure support apparatus. The exposure support apparatus is placed horizontally 0.0254 m under a marine surface with the white background topside facing up. […]
After being removed from the exposure support apparatus, each test panel is inspected and rated for marine organism growth on both the treated and untreated areas of the test panel. The marine organisms present on the treated and untreated areas are noted. The presence of algae spores and bacterial slime are noted but not included in rating each test panel. The test panels are rated on a scale from 10 (representing completely free of marine organism growth) to 0 (representing completely covered with marine organism growth).

[10] = pH 6.8, read-out: Minimum inhibitory Concentration, PRD
[11] = pH 8.2, read-out: Minimum inhibitory Concentration, PRD
[12] = pH 6.8, read-out: Minimum inhibitory Concentration, Bs
[13] = pH 8.2, read-out: Minimum inhibitory Concentration, Bs
[14] = malt yeast agar, 30° C, 48 hours (yeast)
[15] = pH 6.8, read-out: Minimum inhibitory Concentration, Ec
[16] = pH 8.2, read-out: Minimum inhibitory Concentration, Ec
[17] = malt yeast agar, 30° C, 72 hours (fungi)
[18] = pH 6.8, read-out: Minimum inhibitory Concentration, Ea
[19] = pH 8.2, read-out: Minimum inhibitory Concentration, Ea
[20] = pH 6.8, read-out: Minimum inhibitory Concentration, Sa
[21] = pH 8.2, read-out: Minimum inhibitory Concentration, Sa
[22] = pH 6.8, read-out: Minimum inhibitory Concentration, Kp
[23] = pH 8.2, read-out: Minimum inhibitory Concentration, Kp
[24] = pH 6.8, read-out: Minimum inhibitory Concentration, Pv
[25] = pH 8.2, read-out: Minimum inhibitory Concentration, Pv

SMILES	MIC ([1]; pH 6.8, nutrient agar) [µg/mL]	MIC ([1]; pH 8.2, nutrient agar) [µg/mL]	MIC [2, 10] [µg/mL]	MIC [2, 11] [µg/mL]	MIC (Bacillus subtilis (Bs); [12]) [µg/mL]	MIC (Bacillus subtilis (Bs); [13]) [µg/mL]	MIC ([3]; pH 6.8, nutrient agar) [µg/mL]	MIC ([3]; pH 8.2, nutrient agar) [µg/mL]	MIC [4, 14] [µg/mL]	MIC (Escherichia coli (Ec); [15]) [µg/mL]	MIC (Escherichia coli (Ec); [16]) [µg/mL]	MIC [5] [µg/mL]	MIC [6, 18] [µg/mL]	MIC [6, 19] [µg/mL]	MIC [7, 20] [µg/mL]	MIC [7, 21] [µg/mL]	MIC [8, 22] [µg/mL]	MIC [8, 23] [µg/mL]	MIC (Proteus vulgaris (Pv); [24]) [µg/mL]	MIC (Proteus vulgaris (Pv); [25]) [µg/mL]	further results
Cn1c(=O)c2sc3nsnc3sc=2c1=O [II, 6-Methyl-5H-Pyrrolo (3',4':5,6)(1,4)dithiino-(2,3-C)(1,2,5)thiadiazole-5,7(6H) -dione]	100 (≈ 389 µM)	> 500	> 500	> 500	< 10	250 (≈ 972 µM)	> 500	> 500	< 1	50 (≈ 194 µM)	> 500	< 1	> 500	> 500	50 (≈ 194 µM)	250 (≈ 972 µM)	250 (≈ 972 µM)	> 500	25 (≈ 97.2 µM)	> 500	MIC (Fusarium oxysporum (Of)): < 1 µg/mL; MIC (Trichoderma viride (Tv); [17]): < 1 µg/mL; MIC (Aspergillus niger (An)): < 1 µg/mL; MIC [9, 17]: < 1 µg/mL; MIC (Candida albicans (Ca); [14]): < 1 µg/mL
CCn1c(=O)c2sc3nsnc3sc=2c1=O [III, 6-Ethyl-5H-Pyrrolo(3',4':5,6)(1,4)dithiino-(2,3-C)(1,2,5)thiadiazole-5,7(6H) -dione]	250 (≈ 921 µM)	> 500	> 500	> 500	25 (≈ 92.1 µM)	100 (≈ 369 µM)	> 500	> 500	< 10	50 (≈ 184 µM)	> 500	< 10	> 500	> 500	50 (≈ 184 µM)	250 (≈ 921 µM)	500 (≈ 1840 µM)	> 500	50 (≈ 184 µM)	> 500	MIC (Fusarium oxysporum (Of)): 250 µg/mL (≈ 921 µM); MIC (Trichoderma viride (Tv); [17]): 500 µg/mL (≈ 1840 µM); MIC [9, 17]: 25 µg/mL (≈ 92.1 µM); MIC (Candida albicans (Ca); [14]): < 10 µg/mL
CCCn1c(=O)c2sc3nsnc3sc=2c1=O [IV, 6-n-Propyl-5H-Pyrrolo(3',4':5,6)(1,4)dithiino-(2,3-C)(1,2,5)thiadiazole-5,7(6H) -dione]	500 (≈ 1750 µM)	> 500	> 500	> 500	< 10	250 (≈ 876 µM)	> 500	> 500	< 1	> 500	> 500	< 1	> 500	> 500	50 (≈ 175 µM)	50 (≈ 175 µM)	> 500	> 500	250 (≈ 876 µM)	> 500	MIC (Fusarium oxysporum (Of)): < 1 µg/mL; MIC (Trichoderma viride (Tv); [17]): < 1 µg/mL; Marine Antifouling Rating, Bottom Panel (marine organisms; 6 weeks): 9; Marine Antifouling Rating, Top Panel (marine organisms; 6 weeks): 9; Marine Antifouling Rating, Bottom Panel (marine organisms; 10 weeks): 7; Marine Antifouling Rating, Top Panel (marine organisms; 10 weeks): 7; Marine Antifouling Rating, Bottom Panel (marine organisms; 16 weeks): 7; Marine Antifouling Rating, Top Panel (marine organisms; 16 weeks): 7; MIC (Aspergillus niger (An)): < 1 µg/mL; MIC [9, 17]: < 1 µg/mL; MIC (Candida albicans (Ca); [14]): < 1 µg/mL
CCCCCCn1c(=O)c2sc3nsnc3sc=2c1=O [V, 6-n-Hexyl-5H-Pyrrolo (3',4':5,6)(1,4)dithiino-(2,3-C)(1,2,5)thiadiazole-5,7(6H) -dione]	> 500	> 500	> 500	> 500	< 10	25 (≈ 76.3 µM)	> 500	> 500		> 500	> 500	25 (≈ 76.3 µM)	> 500	> 500	< 10	< 10	> 500	> 500	> 500	> 500	MIC ([4]; 48 h): 25 µg/mL (≈ 76.3 µM); MIC (Trichoderma viride (Tv); 72 h): 50 µg/mL (≈ 153 µM); MIC [9, 17]: 25 µg/mL (≈ 76.3 µM); MIC (Candida albicans (Ca); 48 h): 25 µg/mL (≈ 76.3 µM)
O=c1c2sc3nsnc3sc=2c(=O)n1-c1ccccc1 [VI, 6-Phenyl-5H-Pyrrolo(3',4':5,6)(1,4)dithiino-(2,3-C)(1,2,5)thiadiazole-5,7 (6H) -dione]	> 500	> 500	> 500	> 500	< 10	100 (≈ 313 µM)	> 500	> 500	100 (≈ 313 µM)	> 500	> 500	< 10	> 500	> 500	25 (≈ 78.3 µM)	50 (≈ 157 µM)	> 500	> 500	> 500	> 500	MIC (Fusarium oxysporum (Of)): 250 µg/mL (≈ 783 µM); MIC (Trichoderma viride (Tv); [17]): 500 µg/mL (≈ 1570 µM); MIC (Aspergillus niger (An)): < 10 µg/mL; MIC ([9]; 72 h): < 10 µg/mL; MIC (Candida albicans (Ca); [14]): 250 µg/mL (≈ 783 µM)
O=c1c2sc3nsnc3sc=2c(=O)n1CCc1ccccc1 [VII, 6-(2-Phenethyl)-5H-Pyrrolo(3',4':5,6)(1,4)dithiino-(2,3-C)(1,2,5)thiadiazole-5,7(6H)-dione]	> 500	> 500	> 500	> 500	> 500	> 500	> 500	> 500	250 (≈ 720 µM)	> 500	> 500	100 (≈ 288 µM)	> 500	> 500	> 500	> 500	> 500	> 500	> 500	> 500	MIC (Fusarium oxysporum (Of)): > 500 µg/mL; MIC (Trichoderma viride (Tv); [17]): > 500 µg/mL; MIC (Aspergillus niger (An)): 100 µg/mL (≈ 288 µM); MIC [9, 17]: > 500 µg/mL; MIC (Candida albicans (Ca); [14]): > 500 µg/mL
